Reference: PubChem BioAssay AID1963442 (Molecular Pharmacology Branch, DTP, NCI, 2024)

System: MPNST complex spheroid with HUVEC/MSC, growth, % test/control
Test: Anticancer human tumor MPNST cell line growth inhibition [Asc];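 note: compounds left on spheroids for seven days before reading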
Conditions: for IC50: curve of first compound; for viability, T/C: stronger effect = lower value
Method in brief: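 Complex spheroids combining tumor cells with HUVEC endothelial cells and human MSCs, at 37 degrees C, 5% CO2; agents tested alone or combined, half-log dilutions from at or near clinical Cmax, or 10 microM if Cmax unknown.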

C=CC(=O)N1CCN(c2nc(=O)n(-c3c(C)ccnc3C(C)C)c3nc(-c4c(O)cccc4F)c(F)cc23)C(C)C1 (stereo not given) + Cc1c(S(C)(=O)=O)c(-c2cc(F)cc(N3CCN(c4ccc(NS(=O)(=O)c5ccc(NC(CCN6CCC(C(=O)OCCCP(=O)(O)O)CC6)CSc6ccccc6)c(S(=O)(=O)C(F)(F)F)c5)cc4)CC3)c2)c(-c2ccc(Cl)cc2)n1C(C)C
IC50 (second compound 0.1 µM): > 10 µM
IC50 (second compound 0.316 µM): > 10 µM
IC50 (second compound 1 µM): > 10 µM
IC50 (second compound 3.16 µM): > 10 µM
IC50 (second compound 10 µM): > 10 µM
viability, T/C (second compound 0.1 µM, first compound 0.0316 µM): 71.9%
viability, T/C (second compound 0.1 µM, first compound 0.1 µM): 74.7%
viability, T/C (second compound 0.1 µM, first compound 0.316 µM): 84.2%
viability, T/C (second compound 0.1 µM, first compound 1 µM): 96.2%
viability, T/C (second compound 0.1 µM, first compound 3.16 µM): 93.4%
viability, T/C (second compound 0.1 µM, first compound 10 µM): 105%
viability, T/C (second compound 0.316 µM, first compound 0.0316 µM): 79.4%
viability, T/C (second compound 0.316 µM, first compound 0.1 µM): 93.8%
viability, T/C (second compound 0.316 µM, first compound 0.316 µM): 76.7%
viability, T/C (second compound 0.316 µM, first compound 1 µM): 88.9%
viability, T/C (second compound 0.316 µM, first compound 3.16 µM): 85.7%
viability, T/C (second compound 0.316 µM, first compound 10 µM): 108%
viability, T/C (second compound 1 µM, first compound 0.0316 µM): 90.8%
viability, T/C (second compound 1 µM, first compound 0.1 µM): 85.1%
viability, T/C (second compound 1 µM, first compound 0.316 µM): 89.8%
viability, T/C (second compound 1 µM, first compound 1 µM): 89.9%
viability, T/C (second compound 1 µM, first compound 3.16 µM): 101%
viability, T/C (second compound 1 µM, first compound 10 µM): 118%
viability, T/C (second compound 3.16 µM, first compound 0.0316 µM): 66.5%
viability, T/C (second compound 3.16 µM, first compound 0.1 µM): 88%
viability, T/C (second compound 3.16 µM, first compound 0.316 µM): 84.6%
viability, T/C (second compound 3.16 µM, first compound 1 µM): 99%
viability, T/C (second compound 3.16 µM, first compound 3.16 µM): 100%
viability, T/C (second compound 3.16 µM, first compound 10 µM): 99%
viability, T/C (second compound 10 µM, first compound 0.0316 µM): 83.5%
viability, T/C (second compound 10 µM, first compound 0.1 µM): 91.2%
viability, T/C (second compound 10 µM, first compound 0.316 µM): 83.8%
viability, T/C (second compound 10 µM, first compound 1 µM): 97.1%
viability, T/C (second compound 10 µM, first compound 3.16 µM): 115%
viability, T/C (second compound 10 µM, first compound 10 µM): 115%
